According to patent US9120812B2, “Pyrimidooxazocine derivatives as mTOR-inhibitors” (SANOFI, priority 2012, dated 2015):

What was measured:
PI3Kα (p110α/p85α) = PI3Kα (p110α/p85α) (Homo sapiens (Human), UniProt P42336); test: PI3Kα enzymatic test by measuring the consumption of ATP; type: biochemical
How it was run: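 p110α/p85α (1.7 μg/ml) with 50 μM PIP2 and 2 μM ATP in pH 7.5 Tris buffer with EGTA, MgCl2, Chaps, DTT; reaction 90 min. Remaining ATP measured by luciferin/luciferase luminescence; IC50 from threefold serial dilutions spanning at least 10 000-fold.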

U87MG tumour cells = test: Test of in vitro proliferation of U87MG tumour cells; type: cell-based; settings: Homo sapiens, U-87 MG, 72 h, U87MG cells, 72 hours; read-out: U87 Cell Proliferation IC50
Description: Model 4: Test of in vitro Proliferation of U87MG Tumour Cells.
The cell growth is determined with the reagent CellTiter 96 AQueous One Solution Cell Proliferation Assay from Promega (Cat. No. G3581).

[1] = target: mTOR (human recombinant aa mTOR 1360-2549) (Homo sapiens (Human), UniProt P42345); test: mTOR enzymatic test by TR-FRET (phosphorylation of GFP-4EBP1); type: biochemical
mTOR (human recombinant aa mTOR 1360-2549), sequence (P42345 1360-2549): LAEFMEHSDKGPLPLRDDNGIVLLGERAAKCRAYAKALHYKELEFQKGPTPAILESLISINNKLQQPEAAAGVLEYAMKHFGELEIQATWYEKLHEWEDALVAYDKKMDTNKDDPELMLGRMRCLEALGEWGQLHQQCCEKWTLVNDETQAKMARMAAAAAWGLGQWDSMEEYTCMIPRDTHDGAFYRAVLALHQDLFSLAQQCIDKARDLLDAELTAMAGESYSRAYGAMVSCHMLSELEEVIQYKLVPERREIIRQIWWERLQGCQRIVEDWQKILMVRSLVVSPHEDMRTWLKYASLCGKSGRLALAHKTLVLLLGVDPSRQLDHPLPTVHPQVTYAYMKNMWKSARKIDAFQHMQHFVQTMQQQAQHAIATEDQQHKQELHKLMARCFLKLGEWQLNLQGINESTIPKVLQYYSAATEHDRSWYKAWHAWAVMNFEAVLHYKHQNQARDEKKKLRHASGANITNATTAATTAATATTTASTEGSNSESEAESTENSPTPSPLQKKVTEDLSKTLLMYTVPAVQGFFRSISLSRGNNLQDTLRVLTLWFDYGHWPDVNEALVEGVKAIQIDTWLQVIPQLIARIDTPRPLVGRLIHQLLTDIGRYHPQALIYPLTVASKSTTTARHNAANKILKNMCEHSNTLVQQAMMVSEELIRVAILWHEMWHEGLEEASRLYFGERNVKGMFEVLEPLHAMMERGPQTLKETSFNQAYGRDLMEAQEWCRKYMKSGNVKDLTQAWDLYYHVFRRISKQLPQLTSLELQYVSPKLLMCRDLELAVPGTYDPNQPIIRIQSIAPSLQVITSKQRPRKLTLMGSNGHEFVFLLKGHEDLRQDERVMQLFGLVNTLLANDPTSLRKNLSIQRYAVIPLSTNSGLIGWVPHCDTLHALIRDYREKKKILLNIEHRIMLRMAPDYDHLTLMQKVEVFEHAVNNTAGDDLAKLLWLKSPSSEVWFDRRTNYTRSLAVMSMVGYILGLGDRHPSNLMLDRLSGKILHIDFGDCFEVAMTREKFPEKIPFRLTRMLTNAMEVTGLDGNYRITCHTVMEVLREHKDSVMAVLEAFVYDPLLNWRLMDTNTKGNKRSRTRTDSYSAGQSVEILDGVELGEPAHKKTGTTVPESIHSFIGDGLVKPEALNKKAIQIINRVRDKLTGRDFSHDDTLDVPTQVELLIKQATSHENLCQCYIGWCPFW
How it was run: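 TR-FRET detection of GFP-4EBP1 phosphorylation by a terbium-labelled anti-phospho-Thr46 antibody. Kinase reaction ran 30 min at room temperature, was quenched with EDTA (10 mM final) plus Tb-antibody (2 nM final) and left 60 min. Emission at 520 and 490 nm after 340 nm excitation, reported as the 520/490 ratio.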

Akt-pS473 in U87MG cells = settings: Homo sapiens, U-87 MG, read-out: U87 Akt-pS473 % Inhibition or IC50, nM (IC50), U87MG cells

PI3Kα (p110α/p85α), sequence (P42336 whole entry): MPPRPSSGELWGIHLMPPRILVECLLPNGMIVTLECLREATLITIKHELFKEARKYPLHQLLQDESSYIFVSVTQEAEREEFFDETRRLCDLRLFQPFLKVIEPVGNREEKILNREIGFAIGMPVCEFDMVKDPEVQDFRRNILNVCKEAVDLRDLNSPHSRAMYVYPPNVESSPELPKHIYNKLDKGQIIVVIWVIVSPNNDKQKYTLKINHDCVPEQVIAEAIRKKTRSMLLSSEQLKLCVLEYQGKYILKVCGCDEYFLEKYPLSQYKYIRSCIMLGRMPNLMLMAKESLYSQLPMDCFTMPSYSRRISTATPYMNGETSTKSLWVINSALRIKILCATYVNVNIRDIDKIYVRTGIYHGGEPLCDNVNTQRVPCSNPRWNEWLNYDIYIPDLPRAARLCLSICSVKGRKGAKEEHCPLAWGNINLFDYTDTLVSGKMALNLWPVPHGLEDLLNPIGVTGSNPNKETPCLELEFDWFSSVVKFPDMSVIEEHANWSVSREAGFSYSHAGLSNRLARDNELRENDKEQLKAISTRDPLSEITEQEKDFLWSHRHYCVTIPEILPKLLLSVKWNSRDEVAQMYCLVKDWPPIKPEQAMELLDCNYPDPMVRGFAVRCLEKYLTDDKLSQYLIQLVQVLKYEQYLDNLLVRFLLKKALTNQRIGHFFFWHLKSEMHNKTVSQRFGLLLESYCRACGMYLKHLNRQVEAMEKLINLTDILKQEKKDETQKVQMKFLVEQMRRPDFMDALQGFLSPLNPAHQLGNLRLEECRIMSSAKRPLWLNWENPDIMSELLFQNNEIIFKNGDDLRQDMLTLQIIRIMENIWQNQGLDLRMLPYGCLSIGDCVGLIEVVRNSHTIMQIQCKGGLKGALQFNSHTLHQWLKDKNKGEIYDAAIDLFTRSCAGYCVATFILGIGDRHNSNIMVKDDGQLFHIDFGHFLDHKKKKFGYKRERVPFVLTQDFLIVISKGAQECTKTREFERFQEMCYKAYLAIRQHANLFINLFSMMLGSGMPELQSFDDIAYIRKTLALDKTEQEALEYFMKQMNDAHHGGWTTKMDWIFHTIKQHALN
PI3Kα (p110α/p85α), sequence (P27986 whole entry partner): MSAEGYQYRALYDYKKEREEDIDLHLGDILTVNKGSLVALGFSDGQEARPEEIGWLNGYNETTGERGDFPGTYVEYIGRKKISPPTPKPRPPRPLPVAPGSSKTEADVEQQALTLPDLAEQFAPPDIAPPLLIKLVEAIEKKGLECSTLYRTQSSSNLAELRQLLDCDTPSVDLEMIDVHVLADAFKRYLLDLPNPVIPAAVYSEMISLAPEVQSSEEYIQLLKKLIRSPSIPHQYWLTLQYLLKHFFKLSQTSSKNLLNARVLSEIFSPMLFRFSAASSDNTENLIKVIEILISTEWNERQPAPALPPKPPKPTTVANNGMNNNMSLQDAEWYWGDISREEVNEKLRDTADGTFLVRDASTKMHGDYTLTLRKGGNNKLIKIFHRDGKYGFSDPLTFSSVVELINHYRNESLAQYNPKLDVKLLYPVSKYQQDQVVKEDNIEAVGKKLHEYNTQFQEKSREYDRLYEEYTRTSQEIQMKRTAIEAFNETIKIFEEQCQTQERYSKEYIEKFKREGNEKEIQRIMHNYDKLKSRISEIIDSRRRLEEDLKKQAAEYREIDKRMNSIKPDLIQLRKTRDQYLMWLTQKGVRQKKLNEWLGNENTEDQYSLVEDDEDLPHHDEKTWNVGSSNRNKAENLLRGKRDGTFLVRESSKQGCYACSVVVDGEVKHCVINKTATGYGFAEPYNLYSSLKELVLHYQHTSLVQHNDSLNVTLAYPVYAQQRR

Row | SMILES | PI3Ka IC50 (PI3Kα (p110α/p85α)) [nM] | IC50 (U87MG tumour cells) [nM] | IC50 [1] [nM] | IC50 (Akt-pS473 in U87MG cells) [nM]
1 | CCN1CC(C)(C)Oc2nc(N3CCOC[C@@H]3C)nc(-c3ccc(NC(=O)NC4CC4)c(F)c3)c2C1=O [Example 150, 1-Cyclopropyl-3-{4-[6-ethyl-8,8-dimethyl-2-((S)-3-methylmorpholin-4-yl)-5-oxo-5,6,7,8-tetrahydro-9-oxa-1,3,6-triazabenzocyclohepten-4-yl]-2-fluorophenyl}urea] | 5800 | 201 | 40 | 73
2 | CCNC(=O)Nc1ccc(-c2nc(N3CCOC[C@@H]3CC)nc3c2C(=O)N(CC)CC(C)(C)O3)cc1F [Example 151, 1-Ethyl-3-{4-[6-ethyl-2-((S)-3-ethylmorpholin-4-yl)-8,8-dimethyl-5-oxo-5,6,7,8-tetrahydro-9-oxa-1,3,6-triazabenzocyclohepten-4-yl]-2-fluorophenyl}urea] | >10000 | 531 | 116 | 82
3 | CCN1CC(C)(C)Oc2nc(N3CC4CCC(C3)O4)nc(-c3ccc(Nc4nnc(C)[nH]4)c(F)c3)c2C1=O [Example 152, 6-Ethyl-4-[3-fluoro-4-(5-methyl-4H-[1,2,4]triazol-3-ylamino)phenyl]-8,8-dimethyl-2-(8-oxa-3-azabicyclo[3.2.1]oct-3-yl)-7,8-dihydro-6H-9-oxa-1,3,6-triazabenzocyclohepten-5-one] | >10000 | 2680 | 348 | 257
4 | CC1(C)CN(C2CCOCC2)C(=O)c2c(nc(N3CC4CCC(C3)O4)nc2-c2ccc(NC(=O)Nc3ccon3)c(F)c2)O1 [Example 153, 1-{4-[8,8-Dimethyl-2-(8-oxa-3-azabicyclo[3.2.1]oct-3-yl)-5-oxo-6-(tetrahydropyran-4-yl)-5,6,7,8-tetrahydro-9-oxa-1,3,6-triazabenzocyclohepten-4-yl]-2-fluorophenyl}-3-isoxazol-3-ylurea] | >10000 | 346 | 31 | 116
5 | CCN1CC(C)(C)Oc2nc(N3CC4CCC(C3)O4)nc(-c3ccc(NC(=O)Nc4ccc(C(F)(F)F)cc4F)cc3)c2C1=O [Example 154, 1-{4-[6-Ethyl-8,8-dimethyl-2-(8-oxa-3-azabicyclo[3.2.1]oct-3-yl)-5-oxo-5,6,7,8-tetrahydro-9-oxa-1,3,6-triazabenzocyclohepten-4-yl]phenyl}-3-(2-fluoro-4-trifluoromethylphenyl)urea] | >10000 | 97 | 182 | 54
6 | CCN1CC(C)(C)Oc2nc(N3CC4CCC(C3)O4)nc(-c3ccc(NC(=O)Nc4cc(OC)c(F)cc4F)cc3)c2C1=O [Example 155, 1-(2,4-Difluoro-5-methoxyphenyl)-3-{4-[6-ethyl-8,8-dimethyl-2-(8-oxa-3-azabicyclo[3.2.1]oct-3-yl)-5-oxo-5,6,7,8-tetrahydro-9-oxa-1,3,6-triazabenzocyclohepten-4-yl]phenyl}urea] | >10000 | 142 | 79 | 59
7 | C[C@H]1COCCN1c1nc2c(c(-c3ccc(NC(=O)Nc4ccon4)c(F)c3)n1)C(=O)N(C1CCOCC1)CC(C)(C)O2 [Example 156, 1-{4-[8,8-Dimethyl-2-((S)-3-methylmorpholin-4-yl)-5-oxo-6-(tetrahydropyran-4-yl)-5,6,7,8-tetrahydro-9-oxa-1,3,6-triazabenzocyclohepten-4-yl]-2-fluorophenyl}-3-isoxazol-3-ylurea] | 1140 | 395 | 27 | 92
8 | CC1(C)CN(C2CCOCC2)C(=O)c2c(nc(N3CC4CCC(C3)O4)nc2-c2ccc(NC(=O)Nc3ccon3)cc2)O1 [Example 157, 1-{4-[8,8-Dimethyl-2-(8-oxa-3-azabicyclo[3.2.1]oct-3-yl)-5-oxo-6-(tetrahydropyran-4-yl)-5,6,7,8-tetrahydro-9-oxa-1,3,6-triazabenzocyclohepten-4-yl]phenyl}-3-isoxazol-3-ylurea] | >10000 | 260 | 27 | 67
9 | CCN1CC(C)(C)Oc2nc(N3CC4CCC(C3)O4)nc(-c3ccc(NC(=O)Nc4ccccn4)c(F)c3)c2C1=O [Example 158, 1-{4-[6-Ethyl-8,8-dimethyl-2-(8-oxa-3-azabicyclo[3.2.1]oct-3-yl)-5-oxo-5,6,7,8-tetrahydro-9-oxa-1,3,6-triazabenzocyclohepten-4-yl]-2-fluorophenyl}-3-pyridin-2-ylurea] | >10000 | 1700 | 64 | 1600
10 | CCN1CC(C)(C)Oc2nc(N3CCOC[C@@H]3C)nc(-c3ccc(NC(=O)Nc4ccon4)c(F)c3)c2C1=O [Example 159, 1-{4-[6-Ethyl-8,8-dimethyl-2-((S)-3-methylmorpholin-4-yl)-5-oxo-5,6,7,8-tetrahydro-9-oxa-1,3,6-triazabenzocyclohepten-4-yl]-2-fluorophenyl}-3-isoxazol-3-ylurea] | 561 | 98 | 18 | 21
11 | CCN1CC(C)(C)Oc2nc(N3CCOC[C@@H]3C)nc(-c3ccc(NC(=O)Nc4cnccn4)c(F)c3)c2C1=O [Example 160, 1-{4-[6-Ethyl-8,8-dimethyl-2-((S)-3-methylmorpholin-4-yl)-5-oxo-5,6,7,8-tetrahydro-9-oxa-1,3,6-triazabenzocyclohepten-4-yl]-2-fluorophenyl}-3-pyrazin-2-ylurea] | 4900 | 744 | 41 | 114
12 | CCN1CC(C)(C)Oc2nc(N3CCOC[C@@H]3C)nc(-c3ccc(NC(=O)Nc4ccc(C)nc4)c(F)c3)c2C1=O [Example 161, 1-{4-[6-Ethyl-8,8-dimethyl-2-((S)-3-methylmorpholin-4-yl)-5-oxo-5,6,7,8-tetrahydro-9-oxa-1,3,6-triazabenzocyclohepten-4-yl]-2-fluorophenyl}-3-(6-methylpyridin-3-yl)urea] | 321 | 60 | 38 | 9
13 | COCCN1CC(C)(C)Oc2nc(N3CC4CCC(C3)O4)nc(-c3ccc(NC(=O)Nc4ccc(F)cc4F)cc3)c2C1=O [Example 162, 1-(2,4-Difluorophenyl)-3-{4-[6-(2-methoxyethyl)-8,8-dimethyl-2-(8-oxa-3-azabicyclo[3.2.1]oct-3-yl)-5-oxo-5,6,7,8-tetrahydro-9-oxa-1,3,6-triazabenzocyclohepten-4-yl]phenyl}urea] | >10000 | 486 | 147 | 110
14 | CCN1CC(C)(C)Oc2nc(N3CCOC[C@@H]3C)nc(-c3ccc(NC(=O)Nc4ccc(OC)cn4)c(F)c3)c2C1=O [Example 163, 1-{4-[6-Ethyl-8,8-dimethyl-2-((S)-3-methylmorpholin-4-yl)-5-oxo-5,6,7,8-tetrahydro-9-oxa-1,3,6-triazabenzocyclohepten-4-yl]-2-fluorophenyl}-3-(5-methoxypyridin-2-yl)urea] | 3870 | 1020 | 55 | 130
15 | CCN1CC(C)(C)Oc2nc(N3CCOC[C@@H]3C)nc(-c3ccc(NC(=O)Nc4ccc(C)cn4)c(F)c3)c2C1=O [Example 164, 1-{4-[6-Ethyl-8,8-dimethyl-2-((S)-3-methylmorpholin-4-yl)-5-oxo-5,6,7,8-tetrahydro-9-oxa-1,3,6-triazabenzocyclohepten-4-yl]-2-fluorophenyl}-3-(5-methylpyridin-2-yl)urea] | 3800 | 872 | 85 | 227
16 | CCN1CC(C)(C)Oc2nc(N3CC4CCC(C3)O4)nc(-c3ccc(NC(=O)Nc4ccon4)c(C)c3)c2C1=O [Example 165, 1-{4-[6-Ethyl-8,8-dimethyl-2-(8-oxa-3-azabicyclo[3.2.1]oct-3-yl)-5-oxo-5,6,7,8-tetrahydro-9-oxa-1,3,6-triazabenzocyclohepten-4-yl]-2-methylphenyl}-3-isoxazol-3-ylurea] | >10000 | 4200 | 180 | 1530
17 | CCN1CC(C)(C)Oc2nc(N3CCOC[C@@H]3C)nc(-c3ccc(NC(=O)Nc4ccn(C)n4)c(F)c3)c2C1=O [Example 166, 1-{4-[6-Ethyl-8,8-dimethyl-2-((S)-3-methylmorpholin-4-yl)-5-oxo-5,6,7,8-tetrahydro-9-oxa-1,3,6-triazabenzocyclohepten-4-yl]-2-fluorophenyl}-3-(1-methyl-1H-pyrazol-3-yl)urea] | 2300 | 1270 | 86 | 278
18 | CCN1CC(C)(C)Oc2nc(N3CCOC[C@@H]3C)nc(-c3ccc(NC(=O)Nc4cnc(C)cn4)c(F)c3)c2C1=O [Example 167, 1-{4-[6-Ethyl-8,8-dimethyl-2-((S)-3-methylmorpholin-4-yl)-5-oxo-5,6,7,8-tetrahydro-9-oxa-1,3,6-triazabenzocyclohepten-4-yl]-2-fluorophenyl}-3-(5-methylpyrazin-2-yl)urea] | 3520 | 500 | 62 | 158
